Consider seven compounds from ChEMBL document CHEMBL1201862, “PubChem BioAssay data set” (2004).

Activity calls are given as the source filed them.

A short description of assay [1]: HEp-2 cell cytotoxicity, dose response, cytotoxicity control for RSV inhibitor project, HTS (AID 2410). The format is functional. The conditions noted are these: human respiratory syncytial virus.
Assay [2] in a line: inhibitors of Bluetongue virus cytopathic effect, confirmation, arbovirus, BSR cells (AID 1250).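 Also: protection from viral cytopathic effect measured as cell viability by ATP luminescence.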 Format: functional. A general note: Protection from cytopathic effect is a common read-out in antiviral testing.
Assay [3] concerns the target Long-chain-fatty-acid--AMP ligase FadD28 (Mycobacterium tuberculosis, UniProt P9WQ59). The assay can be described thus: Fluorescence polarization aasay to screen for inhibitors that compete for the binding of FadD28 to a bisubstrate Measured in Biochemical System Using Plate Reader - 2147-01_Inhibitor_Dose_CherryPick_Activity. Format: functional, Mycobacterium tuberculosis H37Rv. For orientation: Polarisation of emitted light reports the rotation of a fluorescent probe.

Assay [4] can be described thus: cells.
For another assay, the system named is HeLa. In words: Cytotoxicity counterscreen assay for transcriptional activators of heat shock protein 70 (Hsp70). [Related pubchem assays: 1203, 1252 ]. The format is functional. To be noted: Homo sapiens.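 Also: cells exposed to compound for 16 hours before readout.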
A short description of assay [5]: microbe, parasite or virus in culture. Format: functional. To be noted: Mycobacterium tuberculosis.
Assay [6] in a line: growth suppression of PTEN-null colon cells, dose response, cell-based, HCT116 PTEN knockout (AID 1047).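 Also: HCT116 colon tumor cells with PTEN knocked out; cells exposed to compound for 60 hours before readout; potency for loss of cell viability measured by luminescence.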 Format: functional.
Assay [7] is described as follows: growth suppression of beta-catenin-knockout colon cells, dose response, cell-based, HCT116, human colon tumor (AID 1045).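 Also: HCT116 colon tumor cells with beta catenin knocked out; cells exposed to compound for 60 hours.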 The format is functional.
Assay [8] can be described thus: THP-1 cell cytotoxicity, dose response, cytotoxicity control for non-replicating M. tuberculosis project (AID 489025). Format: functional.
A short description of assay [9]: Vero E6 cell cytotoxicity, dose response, cytotoxicity control for non-replicating M. tuberculosis project, secondary assay (AID 492998). Format: functional, VeroE6. To be noted: Vero C1008.
Assay [10] is described as follows: cells. The format is functional.
A further assay concerns CHO. The assay can be described thus: cytotoxicity in TLR9-MyD88 CHO cells, dose response, cytotoxicity control for TLR9-MyD88 binding inhibitor project, cell-based, luminescence (AID 588339).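 Also: CHO cells stably coexpressing TLR9 and MyD88 fusions from primary screen; compound exposure lasted 48 hours before viability readout.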 The format is functional, hamster. The conditions noted are these: Cricetulus griseus.
The target of another assay is Beta Lactamase (Pseudomonas aeruginosa, UniProt Q932Y6). The assay can be described thus: beta-lactamase reporter inhibitor potency, dose response, artefact control for TLR9-MyD88 binding inhibitor project, BLA reporter cells, FRET fluorescence (AID 588341).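 Also: cell based assay in CHO-K1 cells stably expressing beta-lactamase.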 The format is cell-based.
Sequence of Beta Lactamase (Q932Y6 whole entry): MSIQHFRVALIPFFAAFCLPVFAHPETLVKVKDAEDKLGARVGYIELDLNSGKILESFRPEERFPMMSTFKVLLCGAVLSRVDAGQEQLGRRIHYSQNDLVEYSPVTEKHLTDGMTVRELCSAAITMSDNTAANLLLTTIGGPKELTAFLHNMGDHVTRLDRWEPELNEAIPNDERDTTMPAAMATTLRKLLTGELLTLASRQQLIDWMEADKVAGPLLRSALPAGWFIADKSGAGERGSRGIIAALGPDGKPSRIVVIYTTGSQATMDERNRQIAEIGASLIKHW
The test system of a further assay is INS1. In words: beta cell apoptosis inhibitors, cytokine rescue, dose response, luminescence, retest (AID 449756).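 Also: cell death triggered by IL-1 beta plus TNF-alpha plus IFN-gamma mixture; protective hits raise ATP signal compared with cytokine alone wells.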 The format is functional, cell-based. To be noted: Rattus norvegicus.
A short description of assay [11]: Fluorescence-based cell-based high throughput dose response assay for inhibitors of the interaction of nucleotide-binding oligomerization domain containing 2 (NOD2) and the receptor-interacting serine-threonine kinase 2 (RIPK2). Format: functional. To be noted: Homo sapiens.
The target in assay [12] is Photoreceptor-specific nuclear receptor (Homo sapiens, UniProt Q9Y5X4). The format is functional, cell-based.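 Also: CHO-S cells with Gal4-NCOR and VP16-NR2E3 two-hybrid luciferase reporter.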
Sequence of Photoreceptor-specific nuclear receptor (Q9Y5X4 whole entry, the tested form may be a part): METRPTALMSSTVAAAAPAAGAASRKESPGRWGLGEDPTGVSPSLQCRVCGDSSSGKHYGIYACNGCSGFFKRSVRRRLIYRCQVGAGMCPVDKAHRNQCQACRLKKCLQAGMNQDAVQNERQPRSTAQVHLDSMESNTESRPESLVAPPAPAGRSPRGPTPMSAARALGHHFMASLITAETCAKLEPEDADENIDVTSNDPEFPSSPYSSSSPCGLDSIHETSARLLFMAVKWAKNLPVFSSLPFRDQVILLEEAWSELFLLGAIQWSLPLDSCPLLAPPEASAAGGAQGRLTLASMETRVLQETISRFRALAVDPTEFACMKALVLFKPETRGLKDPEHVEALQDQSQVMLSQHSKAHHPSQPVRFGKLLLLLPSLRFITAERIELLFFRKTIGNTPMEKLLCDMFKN
The target in the next assay is Paired box protein Pax-8 (Homo sapiens, UniProt Q06710). In words: inhibitors of PAX8-driven TPO luciferase reporter, dose response, RMG-I cells, cherry-pick (AID 687027).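 Also: luciferase reporter driven by Pax8 target thyroperoxidase promoter measured by SteadyGlo luminescence.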 The format is functional, cell-based. In general terms: Reporter assays use an easily measured gene product as a stand-in for the process of interest.
Sequence of Paired box protein Pax-8 (Q06710 whole entry): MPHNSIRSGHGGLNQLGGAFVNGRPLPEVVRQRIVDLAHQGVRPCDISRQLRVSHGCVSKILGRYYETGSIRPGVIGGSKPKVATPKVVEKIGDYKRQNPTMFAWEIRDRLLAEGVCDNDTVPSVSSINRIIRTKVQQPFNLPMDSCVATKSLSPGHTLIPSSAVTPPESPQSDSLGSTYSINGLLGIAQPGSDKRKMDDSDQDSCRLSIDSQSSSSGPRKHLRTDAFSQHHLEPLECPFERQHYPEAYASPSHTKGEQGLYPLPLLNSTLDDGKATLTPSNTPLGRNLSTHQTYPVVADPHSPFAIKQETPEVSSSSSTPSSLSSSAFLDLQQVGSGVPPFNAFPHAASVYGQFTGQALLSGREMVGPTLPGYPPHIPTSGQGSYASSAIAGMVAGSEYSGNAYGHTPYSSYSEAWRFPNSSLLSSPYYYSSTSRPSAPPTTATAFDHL
Assay [13] can be described thus: non-specific cell cytotoxicity, dose response, cytotoxicity control for PAX8 inhibitor project, plate reader, dry powder samples (AID 743021). The format is functional, cell-based.
Assay [14] has as its target T1, Neuropeptide Y receptor type 1 (Homo sapiens, UniProt P25929).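 Also: HEK293 cells with a CNG channel challenged with NPY then isoproterenol; potency as antagonist that reverses NPY suppression of cAMP signal.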
T1 sequence (P25929 whole entry): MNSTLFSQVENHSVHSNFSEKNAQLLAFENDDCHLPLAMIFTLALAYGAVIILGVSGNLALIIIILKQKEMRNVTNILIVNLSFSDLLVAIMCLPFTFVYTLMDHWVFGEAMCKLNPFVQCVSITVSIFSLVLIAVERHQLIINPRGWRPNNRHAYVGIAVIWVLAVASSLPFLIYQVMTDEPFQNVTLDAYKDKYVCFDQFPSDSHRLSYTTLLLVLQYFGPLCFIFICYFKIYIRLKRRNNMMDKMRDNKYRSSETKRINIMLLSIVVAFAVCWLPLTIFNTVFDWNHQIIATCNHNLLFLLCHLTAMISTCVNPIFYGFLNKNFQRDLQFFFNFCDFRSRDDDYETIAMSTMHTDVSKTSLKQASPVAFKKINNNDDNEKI
The format is functional.

Assay [15] has as its target T2, Neuropeptide Y receptor type 2 (Homo sapiens, UniProt P49146).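 Also: HEK293 cells expressing the receptor and a CNG channel; stimulus was NPY near EC95 followed by isoproterenol to raise cAMP; antagonist potency measured as restoring cAMP signal that NPY suppresses.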
T2 sequence (P49146 whole entry): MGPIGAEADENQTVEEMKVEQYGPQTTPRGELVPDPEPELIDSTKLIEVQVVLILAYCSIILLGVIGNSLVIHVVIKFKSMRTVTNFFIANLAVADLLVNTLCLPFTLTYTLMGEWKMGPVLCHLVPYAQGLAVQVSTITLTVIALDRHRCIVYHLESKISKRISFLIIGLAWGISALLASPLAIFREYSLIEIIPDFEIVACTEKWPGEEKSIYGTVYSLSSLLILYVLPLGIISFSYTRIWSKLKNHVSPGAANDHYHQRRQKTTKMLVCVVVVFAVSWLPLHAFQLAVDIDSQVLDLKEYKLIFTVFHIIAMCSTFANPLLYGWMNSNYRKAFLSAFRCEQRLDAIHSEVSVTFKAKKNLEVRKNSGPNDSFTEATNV
The format is functional, cell-based.

The next assay deals with NS3 (Hepatitis C virus, UniProt A3EZJ3). In words: PubChem AID 2173. Details: species or system Hepacivirus hominis.
Sequence of NS3 (A3EZJ3 whole entry): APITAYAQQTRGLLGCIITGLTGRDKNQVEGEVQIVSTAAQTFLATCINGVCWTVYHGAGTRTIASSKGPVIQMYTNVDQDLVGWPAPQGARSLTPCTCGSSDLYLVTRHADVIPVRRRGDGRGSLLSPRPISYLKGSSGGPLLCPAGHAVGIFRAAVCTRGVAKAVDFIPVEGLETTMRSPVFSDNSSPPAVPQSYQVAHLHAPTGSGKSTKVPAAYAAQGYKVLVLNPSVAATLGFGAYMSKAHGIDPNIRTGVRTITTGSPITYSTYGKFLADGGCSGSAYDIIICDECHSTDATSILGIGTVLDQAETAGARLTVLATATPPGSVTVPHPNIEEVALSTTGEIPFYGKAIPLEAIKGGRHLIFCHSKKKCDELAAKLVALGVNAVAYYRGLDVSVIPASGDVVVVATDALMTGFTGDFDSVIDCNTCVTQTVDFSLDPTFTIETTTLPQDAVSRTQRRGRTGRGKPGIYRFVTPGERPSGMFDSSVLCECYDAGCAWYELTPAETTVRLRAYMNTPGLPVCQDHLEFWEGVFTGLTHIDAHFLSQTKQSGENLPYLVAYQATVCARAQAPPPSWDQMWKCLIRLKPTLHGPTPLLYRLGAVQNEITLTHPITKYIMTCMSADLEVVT
For assay [16], the system named is Streptococcus sp. 'group A'. The assay can be described thus: growth inhibition of control SK(-) GAS strain, dose response, counter-screen for streptokinase expression inhibitor project, luminescence, kanamycin, BacTiterGlo, confirmation (AID 1900). The format is functional, organism-based.
A further assay has as its target T3, Streptokinase A (Streptococcus pyogenes serotype M1, UniProt P10520).
T3 sequence (P10520 whole entry): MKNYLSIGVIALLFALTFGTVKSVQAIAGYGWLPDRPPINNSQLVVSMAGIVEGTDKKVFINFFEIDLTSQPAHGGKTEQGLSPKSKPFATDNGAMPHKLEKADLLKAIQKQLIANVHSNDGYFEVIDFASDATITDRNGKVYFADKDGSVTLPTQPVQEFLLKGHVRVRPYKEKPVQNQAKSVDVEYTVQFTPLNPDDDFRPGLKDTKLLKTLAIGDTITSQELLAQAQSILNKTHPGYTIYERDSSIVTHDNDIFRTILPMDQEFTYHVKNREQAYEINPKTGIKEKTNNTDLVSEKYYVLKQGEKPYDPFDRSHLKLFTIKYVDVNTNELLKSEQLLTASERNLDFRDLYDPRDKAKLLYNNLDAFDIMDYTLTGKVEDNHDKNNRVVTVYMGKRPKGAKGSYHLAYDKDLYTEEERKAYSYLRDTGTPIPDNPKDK
In words: S. pyogenes streptokinase expression inhibitors, potency, dose response, plasminogen activation absorbance, OD405 (AID 1914).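 Also: secreted streptokinase activity via plasminogen activation per viability signal from cell pellet.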 The format is functional, Streptococcus pyogenes M1 GAS.

For another assay, the target named is T4, Estrogen receptor (Homo sapiens, UniProt P03372).
T4 sequence (P03372 whole entry): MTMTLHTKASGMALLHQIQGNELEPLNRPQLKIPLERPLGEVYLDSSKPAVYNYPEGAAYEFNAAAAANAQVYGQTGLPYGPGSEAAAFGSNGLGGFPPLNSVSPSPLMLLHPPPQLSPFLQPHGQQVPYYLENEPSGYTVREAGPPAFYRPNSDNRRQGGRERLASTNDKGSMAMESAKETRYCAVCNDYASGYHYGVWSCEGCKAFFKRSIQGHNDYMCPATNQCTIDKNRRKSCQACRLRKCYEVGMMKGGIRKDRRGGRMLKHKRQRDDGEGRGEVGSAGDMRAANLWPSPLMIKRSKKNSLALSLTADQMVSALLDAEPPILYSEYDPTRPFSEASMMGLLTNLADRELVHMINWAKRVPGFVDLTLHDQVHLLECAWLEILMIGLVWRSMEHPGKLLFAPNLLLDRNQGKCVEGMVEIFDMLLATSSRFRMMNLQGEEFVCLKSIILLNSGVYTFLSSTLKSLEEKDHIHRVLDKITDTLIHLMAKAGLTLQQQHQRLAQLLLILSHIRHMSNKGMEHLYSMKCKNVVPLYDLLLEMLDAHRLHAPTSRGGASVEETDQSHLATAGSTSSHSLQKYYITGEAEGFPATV
The assay can be described thus: potentiators of ERα–SRC-1 coactivator binding, dose response, biochemical, TR-FRET, ERα LBD (AID 737).

The test system of a further assay is Streptococcus. The assay can be described thus: Group A Streptococcus viability loss, dose response, counter-screen for streptokinase expression inhibitor project, luminescence, BacTiterGlo (AID 1915).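 Also: potency for reduction of bacterial viability or growth.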 Format: functional, organism-based.
A further assay addresses Mucolipin-3 (Homo sapiens, UniProt Q8TDD5). The assay can be described thus: Dose response cell-based high-throughput screening assay for agonists of the transient receptor potential channel ML3 (TRPML3). [Related pubchem assays: 1526, 1424, 1448 ]. The format is functional.
The next assay has as its target Ion channel NompC (Danio rerio, UniProt Q7T1G6). The assay can be described thus: Fluorescence counterscreen assay for TRPML3 agonists: dose response cell-based high-throughput screening assay to identify agonists of the transient receptor potential channel N1 (TRPN1). [Related pubchem assays: 1526, 1424, 1448 ]. The format is functional.
The target of another assay is Bcl-2-like protein 10 (Homo sapiens, UniProt Q9HD36). The assay can be described thus: Biochemical TR3 FP assay of Bcl-B inhibitor potency, EC50 (AID 1243). Format: functional.
Sequence of Bcl-2-like protein 10 (Q9HD36 whole entry): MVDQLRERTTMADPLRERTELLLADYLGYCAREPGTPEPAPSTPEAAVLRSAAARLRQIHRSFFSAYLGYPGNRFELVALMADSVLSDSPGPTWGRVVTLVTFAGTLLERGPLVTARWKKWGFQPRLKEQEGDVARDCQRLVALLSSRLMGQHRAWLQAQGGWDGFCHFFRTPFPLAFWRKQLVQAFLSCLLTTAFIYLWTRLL

Sequence of Long-chain-fatty-acid--AMP ligase FadD28 (P9WQ59 whole entry): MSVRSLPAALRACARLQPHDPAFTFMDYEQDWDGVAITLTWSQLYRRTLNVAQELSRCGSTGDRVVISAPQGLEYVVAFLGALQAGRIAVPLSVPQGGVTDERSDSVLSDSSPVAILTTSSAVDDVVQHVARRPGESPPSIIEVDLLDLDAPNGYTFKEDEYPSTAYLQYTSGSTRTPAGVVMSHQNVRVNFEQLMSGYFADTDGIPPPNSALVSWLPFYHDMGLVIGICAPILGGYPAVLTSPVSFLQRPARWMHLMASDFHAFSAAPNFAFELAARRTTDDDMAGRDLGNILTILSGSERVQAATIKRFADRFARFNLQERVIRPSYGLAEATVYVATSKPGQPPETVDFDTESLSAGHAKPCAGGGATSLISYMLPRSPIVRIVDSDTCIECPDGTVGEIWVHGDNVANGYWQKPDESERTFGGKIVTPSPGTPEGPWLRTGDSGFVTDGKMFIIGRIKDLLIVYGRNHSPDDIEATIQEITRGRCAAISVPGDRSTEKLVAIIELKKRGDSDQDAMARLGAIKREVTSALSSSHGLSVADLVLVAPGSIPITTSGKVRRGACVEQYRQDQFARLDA
Sequence of Ion channel NompC (Q7T1G6 whole entry): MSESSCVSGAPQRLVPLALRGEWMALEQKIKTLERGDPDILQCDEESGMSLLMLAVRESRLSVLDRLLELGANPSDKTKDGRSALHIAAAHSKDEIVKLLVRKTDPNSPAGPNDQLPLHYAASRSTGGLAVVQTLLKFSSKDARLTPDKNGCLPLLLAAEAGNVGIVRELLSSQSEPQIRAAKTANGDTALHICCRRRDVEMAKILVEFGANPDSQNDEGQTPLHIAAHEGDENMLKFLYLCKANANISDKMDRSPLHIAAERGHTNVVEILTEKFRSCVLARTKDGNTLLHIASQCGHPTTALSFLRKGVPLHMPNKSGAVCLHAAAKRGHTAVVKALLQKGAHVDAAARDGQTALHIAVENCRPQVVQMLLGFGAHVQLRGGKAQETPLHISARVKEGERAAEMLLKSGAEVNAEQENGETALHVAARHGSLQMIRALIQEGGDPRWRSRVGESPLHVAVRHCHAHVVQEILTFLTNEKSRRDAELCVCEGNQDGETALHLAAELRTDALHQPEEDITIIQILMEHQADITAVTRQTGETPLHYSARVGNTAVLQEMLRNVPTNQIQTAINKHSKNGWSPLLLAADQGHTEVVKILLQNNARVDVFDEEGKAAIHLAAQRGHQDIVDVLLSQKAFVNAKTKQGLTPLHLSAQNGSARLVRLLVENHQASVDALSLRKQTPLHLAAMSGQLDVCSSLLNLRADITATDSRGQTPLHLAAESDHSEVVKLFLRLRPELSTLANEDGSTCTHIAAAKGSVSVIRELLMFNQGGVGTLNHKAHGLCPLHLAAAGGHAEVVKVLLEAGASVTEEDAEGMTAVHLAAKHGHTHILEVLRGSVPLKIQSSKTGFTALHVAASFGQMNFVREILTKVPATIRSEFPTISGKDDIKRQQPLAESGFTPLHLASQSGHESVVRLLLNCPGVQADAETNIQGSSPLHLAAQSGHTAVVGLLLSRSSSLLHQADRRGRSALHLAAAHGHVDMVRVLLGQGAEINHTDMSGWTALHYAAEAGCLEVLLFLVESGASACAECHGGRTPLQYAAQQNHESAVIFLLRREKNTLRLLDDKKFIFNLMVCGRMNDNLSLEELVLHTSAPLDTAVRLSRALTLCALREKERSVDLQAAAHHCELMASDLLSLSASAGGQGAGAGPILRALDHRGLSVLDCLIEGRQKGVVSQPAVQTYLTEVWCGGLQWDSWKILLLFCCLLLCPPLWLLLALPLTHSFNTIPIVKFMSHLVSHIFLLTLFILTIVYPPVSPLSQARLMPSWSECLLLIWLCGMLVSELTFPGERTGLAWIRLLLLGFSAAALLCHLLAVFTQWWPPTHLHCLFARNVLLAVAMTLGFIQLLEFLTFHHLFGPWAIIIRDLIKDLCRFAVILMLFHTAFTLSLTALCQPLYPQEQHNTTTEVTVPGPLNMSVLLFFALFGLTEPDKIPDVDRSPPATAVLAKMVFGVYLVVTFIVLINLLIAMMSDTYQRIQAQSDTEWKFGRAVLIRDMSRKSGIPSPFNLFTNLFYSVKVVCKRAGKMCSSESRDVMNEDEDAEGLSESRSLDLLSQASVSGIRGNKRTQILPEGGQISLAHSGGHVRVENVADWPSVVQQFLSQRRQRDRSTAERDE
Sequence of Mucolipin-3 (Q8TDD5 whole entry): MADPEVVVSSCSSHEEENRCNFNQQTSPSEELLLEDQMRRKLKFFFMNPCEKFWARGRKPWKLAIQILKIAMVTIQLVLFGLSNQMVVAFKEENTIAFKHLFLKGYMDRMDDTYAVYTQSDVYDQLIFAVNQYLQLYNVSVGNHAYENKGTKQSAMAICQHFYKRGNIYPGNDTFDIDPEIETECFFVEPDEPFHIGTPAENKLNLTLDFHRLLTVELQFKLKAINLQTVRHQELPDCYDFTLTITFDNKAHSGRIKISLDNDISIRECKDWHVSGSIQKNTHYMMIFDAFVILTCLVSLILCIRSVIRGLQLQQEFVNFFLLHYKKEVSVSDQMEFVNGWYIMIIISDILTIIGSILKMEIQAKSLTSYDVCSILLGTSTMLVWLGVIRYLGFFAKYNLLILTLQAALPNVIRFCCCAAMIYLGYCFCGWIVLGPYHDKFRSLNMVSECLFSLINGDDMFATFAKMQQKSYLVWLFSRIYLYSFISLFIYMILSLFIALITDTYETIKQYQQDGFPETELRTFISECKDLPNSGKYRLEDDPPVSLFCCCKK

What is called IC50 is the concentration that inhibits the measured activity by half. By AC50 is commonly meant the midpoint of the concentration-response curve, whichever way the signal moves. With `CCC1=NN2C(=N)/C(=C\c3cccn3-c3c(C)cccc3C)C(=O)N=C2S1`, in assay [1], the CC50 was 19.5 µM (active). For the same compound, the results for the IC50 (in assay [2]; in “cells [4]”) were 38.4 µM (active) and 20.7 µM (active), respectively. In addition, the AC50 in assay [3] is > 100 µM (inactive).
As a reminder, the EC50 is the concentration giving half of the maximal effect. Regarding `COc1cc(OC)nc(-n2ncc(Br)c(Br)c2=O)n1`, the CC50 in the assay with HeLa was > 1.22 µM (not active); in assay [5], 1.98 µM (active); in [8] it was 0.402 µM (active); in [9] it was 1.36 µM (active). Besides, the EC50 in assay [6] and in assay [7] was < 0.059 µM (active) each time. Moreover, the IC50 is 6.73 µM (active) in the assay “cells [10]”; 0.546 µM (active) in the assay with CHO; > 49.7 µM (inactive) at Beta Lactamase; 1.18 µM (active) in [11]; 2.69 µM (active) in [12]. The AC50 in the assay on INS1 was 6.03 µM (active); on Paired box protein Pax-8, 2.66 µM (active); in assay [13], 20.6 µM (active).
On to `O=C(C1CCN(Cc2ccc(Cl)cc2)CC1)N1CCN(C(c2ccccc2)c2ccccc2)CC1`, for which the IC50 in [14] and in assay [15] was > 35 µM (not active) throughout.
In the case of `CCC(C(=O)O)n1nnc(-c2ccc(-c3ccc(OC)cc3)cc2)n1` (stereo not drawn), the IC50 on NS3 was 8.42 µM (active).
Take `CC(Oc1ccc(Cl)cc1Cl)C(=O)Nc1ccc2oc(-c3ccncc3)nc2c1` (stereo not drawn): the EC50 in assay [16] is 8.75 µM (active); at Streptokinase A, > 150 µM (not active); at Estrogen receptor, 11.4 µM (active); in the assay on Streptococcus it was 9.54 µM (active).
On to `COC(=O)c1cc(-c2ccc(S(=O)(=O)N3CCCCC3)cc2)c(C(F)(F)F)s1`, for which the EC50 on Mucolipin-3 and at Ion channel NompC was > 29.9 µM (not active) throughout.
As to `Cc1ccc(C)n1-c1ccc(C(=O)O)c(Cl)c1`, the EC50 at Bcl-2-like protein 10 is 9.96 µM (active).
